Results on one compound are retold here after patent US8486462B2, “Glycoside having 4-methylergost-7-en-3-ol skeleton and hyperglycemia improving agent” (Morinaga Milk Industry Co., Ltd., priority 2004, dated 2013).

Test [1] deals with db/db mice. The test can be described thus: Test Example 1: hyperglycemia improving effect, random and fasting blood glucose levels in type-II diabetes model mice. It counts as in vivo. The conditions noted are these: oral 1 mL of 15 μg/mL once a day, vs negative sample. As for the experimental part:
The final DMSO concentration was adjusted to 0.2%. The type-II diabetes model mice were orally administered 1 mL of the test sample solution once a day everyday with a sonde. […] Fasting blood glucose levels and random blood glucose levels were measured over time using Antisense II (Bayer-Sankyo Co., Ltd.). The fasting blood glucose levels were measured after 15 hours of fasting.

Test [2] deals with db/db mice. The conditions noted are these: for Hemoglobin A1c relative levels (%) 35th day from the administration: db/db mice, negative sample = 100.
Method: As type-II diabetes model mice, 6-week old male db/db mice (purchased from Clea Japan, Inc.) were used. These mice were divided into groups, each consisting of 7 animals. The test sample was dissolved in DMSO, and the concentration of 3-O-β-D-glucopyranosyl-4-methylergost-7-en-3-ol was adjusted to 1, 5 and 15 μg/mL with physiological saline. The final DMSO concentration was adjusted to 0.2%. The type-II diabetes model mice were orally administered with 1 mL of the test sample solution once day everyday with a sonde. […] On the 35th day from the start of the administration, hemoglobin A1c levels were measured by using DCA 2000 (Bayer-Sankyo Co., Ltd.).

Read-outs that look alike come from different tables or passages of the source.

As for `CC1C(O[C@@H]2O[C@H](CO)[C@@H](O)[C@H](O)[C@H]2O)CC[C@@]2(C)C1CC=C1[C@@H]3CC[C@H]([C@H](C)CC[C@H](C)C(C)C)[C@@]3(C)CC[C@@H]12` (stereo partly drawn) [compound 1, 3-O-β-D-glucopyranosyl-4-methylergost-7-en-3-ol], in the test on db/db mice [1] (after 15 hours of fasting), the “fasting blood glucose levels, changes over time” value is given as “effect of suppressing the increases in blood glucose levels was clearly observed”. Besides, the “random blood glucose levels, changes over time” value in the test on db/db mice [1] is “effect of suppressing the increases in blood glucose levels was clearly observed”. In addition, the “Hemoglobin A1c relative levels (%) 35th day from the administration” value in the test with db/db mice [2] (1 μg oral once a day) came out at 98.6 ± 7.3%; in the test with db/db mice [2] (5 μg oral once a day) it was 89.6 ± 7.9 %; with db/db mice [2] (15 μg oral once a day) it was 73.5 ± 8.6 %. Also, the “hemoglobin A1c levels in comparison with negative sample” value in the test on db/db mice [2] (repetitive administration of 5 or 15 μg, 35th day) was “statistically significant decreases”.
